According to PMC5986712, “Aminobenzothiazole derivatives stabilize the thermolabile p53 cancer mutant Y220C and show anticancer activity in p53-Y220C cell lines” (European Journal of Medicinal Chemistry, 2018):
pIC50, pKd: −log10 of the molar value.

Experiments:
[1] = biological target: T1, stabilized p53-Y220C DBD (residues 94–312) (Homo sapiens, UniProt P04637, M133L/N239Y/N268D/V203A/Y220C); assay: Differential scanning fluorimetry (DSF), thermal stabilization of Y220C; format: binding; conditions: 8 μM protein, 10 × SYPRO Orange, 250 μM ligand
T1 construct: Stabilized p53-Y220C DBD (residues 94–312) was expressed and purified; 6xHis / lipoyl domain / TEV protease cleavage site (N, cleaved yes); made in house; host or cells: E. coli C41
Protocol: DSF was performed as described. […] All samples were measured in triplicate.

15N-labeled T-p53C-Y220C = biological target: T2, 15N-labeled T-p53C-Y220C (Homo sapiens, UniProt P04637, M133L/N239Y/N268D/V203A/Y220C); assay: 1H/15N-HSQC NMR titration; format: binding; conditions: average of at least three fits of shifted peaks
T2 construct: Stabilized p53-Y220C DBD (residues 94–312) was expressed and purified; 6xHis / lipoyl domain / TEV protease cleavage site (N, cleaved yes); made in house; host or cells: E. coli C41
Description: Compound stock solutions were mixed with protein immediately before the NMR measurement.

NUGC3 cells (p53-Y220C) = assay: Cell viability assay (CellTiter-Fluor / CellTiter-Glo 2.0), NUGC3; format: cell-based, human; conditions: for pIC50: Homo sapiens, NUGC-3, 72 h, Y220C cell line
Protocol: (§1) We also envisaged that masking the carboxylate of MB710 as a simple ethylamide MB725 might influence cell permeability and uptake of the scaffold.
(§2) All cell lines were cultured as previously described. Cell viability was measured in quadruplicate (technical replicates) using the CellTiter-Fluor or CellTiter-Glo 2.0 cell viability assay kits (Promega, USA) as previously described.

[2] = tested on: NUGC4, HUH-6, NUGC3, HUH-7, SW1088, BXPC-3, WI38 cells; assay: Cell viability across all cell lines tested; format: cell-based, human; conditions: 72 h treatment; 60 and MB710: at concentrations up to 60 μM
Protocol: as §1, §2

[3] = tested on: HUH-7 and HUH-7 p53-Y220C KO cells; assay: Cell viability, HUH-7 versus isogenic HUH-7 p53-Y220C KO; format: cell-based, human; conditions: 72 h
Description: (§3) To confirm that MB725 mediated anticancer effects are dependent on p53-Y220C, we additionally tested the compound in HUH-7 and an in-house CRISPR generated isogenic p53-Y220C knock-out (KO) HUH-7 cell line (Fig. 8). This new cell line contains a frameshift mutation at codon 124 on one allele and deletion of amino acids 125–223 on the other allele, leading to functional inactivation of the p53 DNA-binding domain (aa 92–292). MB725 decreased cell viability by ca. 30–40% more potently in HUH-7 than in the isogenic HUH-7 p53-Y220C KO (Fig. 8, upper panel).
Fig. 8 Assessment of p53-Y220C dependent effect of MB725. Treatment of HUH-7 (p53-Y220C) and HUH-7 p53-Y220C KO cell lines with MB725 for 72 h underscores the enhanced cytotoxicity of MB725 in the presence of p53-Y220C (left panel). […] Cell viability was measured in quadruplicate and normalized against the values of blank (viability = 1) and no cell (viability = 0) controls (left panel). […] Relative mRNA fold-change was measured in triplicate and normalized against untreated sample according to the ΔΔCt method. […]
(§4) WI-38 and BXPC-3 (p53-Y220C) cell lines were purchased from ATCC and HUH-7 (p53-Y220C+/+), HUH-6 (wild-type p53+/+). […] Cell viability was measured in quadruplicate (technical replicates) using the CellTiter-Fluor or CellTiter-Glo 2.0 cell viability assay kits (Promega, USA) as previously described. […]

[4] = tested on: WI38 cells (non-cancerous fibroblast, p53 WT); assay: Cell viability assay, WI38; conditions: Homo sapiens, WI-38, 72 h, read-out: IC50 WI38
Protocol: (§5) All cell lines were cultured as previously described [9]. Cell viability was measured in quadruplicate (technical replicates) using the CellTiter-Fluor or CellTiter-Glo 2.0 cell viability assay kits (Promega, USA) as previously described [9].

SW1088 cells (p53-R273C) = assay: Cell viability assay, SW1088; conditions: Homo sapiens, SW1088, 72 h, read-out: IC50 SW1088
Protocol: as §5

[5] = biological target: T1, stabilized p53-Y220C DBD (residues 94–312); assay: Isothermal titration calorimetry (ITC); format: binding
Protocol: Isothermal Titration Calorimetry (ITC). ITC experiments were conducted as described. The cell unit contained 50 μM protein in a 25 mM KPi (pH 7.2), 150 mM NaCl, 1 mM TCEP, and 5% (v/v) DMSO assay buffer. The syringe contained 2–5 mM compound in the same buffer.

[6] = tested on: NUGC4 cells (wild-type p53); assay: Cell viability assay, NUGC4; format: cell-based; conditions: Homo sapiens, NUGC-4; 72 h, p53 WT
Protocol: as §1, §2

p53 cancer mutant Y220C = conditions: cited from earlier work
BXPC-3 cells (p53-Y220C) = assay: Cell viability assay, BXPC3; conditions: BXPC-3, 72 h; for pIC50: Homo sapiens, read-out: IC50 BXPC3
Protocol: as §5

HUH-7 cells (p53-Y220C) = assay: Cell viability assay, HUH7; format: cell-based, human
Protocol: as §1, §2

[7] = tested on: p53 target genes in HUH-7 and HUH-7 p53-Y220C KO cells; assay: Real-time PCR of p53 target genes, HUH-7 versus HUH-7 p53-Y220C KO; format: cell-based, human; conditions: 18 h
Description: as §3
Fig. 8 Assessment of p53-Y220C dependent effect of MB725. Treatment of HUH-7 (p53-Y220C) and HUH-7 p53-Y220C KO cell lines with MB725 for 72 h underscores the enhanced cytotoxicity of MB725 in the presence of p53-Y220C (left panel). […] Cell viability was measured in quadruplicate and normalized against the values of blank (viability = 1) and no cell (viability = 0) controls (left panel). Data are shown as mean ± SEM (Unpaired t-test to test for significance in HUH7 and HUH7 p53 KO viability reduction; *p < 0.05; **p < 0.01; ***p < 0.001). Relative mRNA fold-change was measured in triplicate and normalized against untreated sample according to the ΔΔCt method. […]
Real-time PCR experiments were performed as described. […] The ΔΔCt method was used to quantify relative mRNA levels. Each sample was measured in triplicate.

[8] = Solubility (qualitative observation); format: physicochemical
[9] = Cell viability in other cell lines (lacking Y220C); format: cell-based; conditions: human, at concentrations below 40 μM
Description: We expected our compounds to show a strong cell viability reduction in cancer cell lines containing the Y220C mutation (NUGC3, HUH-7, BXPC-3), while showing relatively low or no effect on cell lines lacking this mutation (all others). We also envisaged that masking the carboxylate of MB710 as a simple ethylamide MB725 might influence cell permeability and uptake of the scaffold. […] In particular, NUGC3 was the most sensitive cell line.
Fig. 6 Effects of Y220C binders on cancer cell viability. Relative cell viability (Y-axis) of representative cell lines after 72 h treatment with increasing concentrations (X-axis, μM) of 60 (A), MB710 (B), MB725 (C), and previously reported lead compounds PK083 (D), PK7088 (E) and PK5196 (F). The cell line employed in each experiment and their respective p53 status are shown. […] Cell viability was measured in quadruplicate and normalized against the values of blank (viability = 1) and no cell (viability = 0) controls. Data are shown as mean ± SEM.
as §4

Compound	ΔTm at 250 µM [1] [°C]	pIC50 (NUGC3 cells (p53-Y220C))	pIC50 [4]	pIC50 (SW1088 cells (p53-R273C))	pIC50 [6]	pIC50 (BXPC-3 cells (p53-Y220C))	also measured
CCCCOc1cc(C(=O)O)c(O)c(I)c1-n1cccc1 [Compound 52, 5-butoxy-2-hydroxy-3-iodo-4-(1H-pyrrol-1-yl)benzoic acid]	1.4	–	–	–	–	–	pKd (15N-labeled T-p53C-Y220C): 4.52
CCN(CC)c1nc2c(C(=O)O)c(O)c(I)c(-n3cccc3)c2s1 [Compound 70, 2-(diethylamino)-5-hydroxy-6-iodo-7-(1H-pyrrol-1-yl)benzo[d]thiazole-4-carboxylic acid]	2	4.05	< 3.92	< 3.92	~3.92	–	toxicity and selectivity across cell lines (in words) [2]: relatively low toxicity against all cell lines tested; viability reduction HUH-7 versus HUH-7 p53-Y220C KO (in words) ([3]; at higher compound concentration than MB725): stronger viability reduction in HUH-7 cells than in HUH-7 p53-Y220C KO cells; pKd ([5]; ITC): 5.40; fold increase in affinity compared to starting fragment 4 ([5]; Kd ratio): 200 fold
CCn1c2ccccc2c2cc(CNC)ccc21 [Compound 1]	–	4.85	4.66	–	5.05	4.37	pKd (p53 cancer mutant Y220C): 3.85
CCNC(=O)c1c(O)c(I)c(-n2cccc2)c2sc(N(CC)CC)nc12 [Compound 72, 2-(diethylamino)-N-ethyl-5-hydroxy-6-iodo-7-(1H-pyrrol-1-yl)benzo[d]thiazole-4-carboxamide]	–	5.00	< 3.92	< 3.92	< 3.92	4.74	concentration at which an almost maximum effect was achieved (NUGC3 cells (p53-Y220C); NUGC3, 72 h): below 10 μM; cell viability (NUGC3 cells (p53-Y220C); NUGC3, 72 h, at concentrations below 40 μM): 10%; cell viability (HUH-7 cells (p53-Y220C); HUH-7, 72 h, at concentrations below 40 μM): 30%; pIC50 (HUH-7 cells (p53-Y220C); Homo sapiens, Huh-7, 72 h, Y220C cell line): 5.00; cell viability decreased more potently in HUH-7 than in isogenic HUH-7 p53-Y220C KO [3]: 30–40%; increase of mRNA levels of p53 target genes (PUMA (BBC3), p21, MDM2, NOXA, BAX) [7]: more efficiently in HUH-7 than in HUH-7 p53-Y220C KO; cell viability (BXPC-3 cells (p53-Y220C); at concentrations below 40 μM): 30%; solubility (in words) [8]: reduced solubility; viability at 72 h [9]: > 80%
